{"source": "paper PMC10810742", "about": "(The Journal of Biological Chemistry, 2023)", "molecular_target": "T1, CteC36–276 (Chromobacterium violaceum, UniProt Q7NY09)", "T1 construct": "gene cteC; residues 36-276 (disordered N-terminal 1-35 removed); SeMet form for the crystal", "T1 sequence (Q7NY09 36-276)": "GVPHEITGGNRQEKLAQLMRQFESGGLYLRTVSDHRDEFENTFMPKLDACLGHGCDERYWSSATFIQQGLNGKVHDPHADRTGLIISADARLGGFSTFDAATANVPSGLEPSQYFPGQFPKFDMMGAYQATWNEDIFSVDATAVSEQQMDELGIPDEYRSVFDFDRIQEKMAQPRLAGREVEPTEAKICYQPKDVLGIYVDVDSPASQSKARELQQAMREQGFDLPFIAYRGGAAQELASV", "experiment": "isothermal titration calorimetry", "type": "binding", "data": [{"smiles": "NC(=O)c1ccc[n+]([C@@H]2O[C@H](COP(=O)(O)OP(=O)(O)OC[C@H]3O[C@@H](n4cnc5c(N)ncnc54)[C@H](O)[C@@H]3O)[C@@H](O)[C@H]2O)c1", "note": "[NAD^+]", "values": [{"measurement": "Kd", "result": 123, "unit": "µM"}]}]}
